Measured values taken from patent publication US7750020B2, “Sulfonamide-thiazolpyridine derivatives as glucokinase activators useful the treatment of Type 2 diabetes” (Novartis AG, priority 2004, dated 2010).

Target: T1, recombinant GST-GK (Homo sapiens, UniProt P35557)
T1 sequence (P35557 1-465): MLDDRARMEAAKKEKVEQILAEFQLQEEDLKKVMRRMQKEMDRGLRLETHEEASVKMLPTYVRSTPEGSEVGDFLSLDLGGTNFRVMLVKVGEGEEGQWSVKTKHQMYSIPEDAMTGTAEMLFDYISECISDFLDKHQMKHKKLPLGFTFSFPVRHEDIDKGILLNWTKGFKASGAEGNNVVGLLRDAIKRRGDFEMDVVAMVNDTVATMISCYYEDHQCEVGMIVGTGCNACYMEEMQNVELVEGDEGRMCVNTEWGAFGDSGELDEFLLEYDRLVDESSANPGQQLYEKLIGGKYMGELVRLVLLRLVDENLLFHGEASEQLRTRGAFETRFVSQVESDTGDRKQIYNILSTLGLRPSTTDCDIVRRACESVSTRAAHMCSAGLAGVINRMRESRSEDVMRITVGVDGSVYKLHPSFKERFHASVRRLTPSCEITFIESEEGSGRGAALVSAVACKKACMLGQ
Experiment: in vitro assay measuring the activation of recombinant GST-GK
Format: biochemical
From the text: The glucokinase activation in vitro may be determined by measuring the activation of recombinant GST-GK by a compound of the present invention in the absence or the presence of GKRP, a 68,000 Da protein inhibitor of GK. In these assays, formation of glucose-6-phosphate is coupled directly to the formation of thioNADH. GST-GK catalyzes the reaction of glucose and Mg-ATP to produce glucose-6-phosphate and ADP. Glucose-6-phosphate dehydrogenase (G6PDH) reduces thionicotinamide (thioNAD) to thioNADH. The assay measures the formation of […] at 405 nM.
The basic GK assay components are as follows: 25 mM HEPES (pH 7.1), 25 mM KCl, 2.5 mM MgCl2, 1 mM ATP (Sigma A-5394), 1 mM DTT, 1 mM thioNAD (Sigma T-7375), 80 units/mL G6PDH (Sigma G-5885), 10 mM glucose and […] GST-GK (110 nM). For assessing reversal of GK inhibition by GKRP, 20 μM Fructose-1-phosphate ([…]) and 25 μg/mL of recombinant GKRP (370 nM) are added to these assay components. F-1-P at 1 μM is used as a control in the GK/GKRP assay. F-1-P reverses inhibition of GST-GK by GKRP.
The assay is done in standard, 96-well, round-bottom plates and the total assay volume is 25 μL. […] The plates are then delivered via the Zymark XP arm to a Thermomax plate reader and read kinetically over three min at 405 nM at RT. Units are expressed as milli-optical density per minute (mOD/min).

Row | Structure (SMILES) | EC50 [nM]
1 | COc1ccc2nc(NC(=O)C(CC3CCCC3)c3ccc(S(=O)(=O)N4CCN(C)CC4)cc3)sc2n1 (stereo not shown) [Example 1, 3-Cyclopentyl-N-(5-methoxy-thiazolo[5,4-b]pyridin-2-yl)-2-[4-(4-methyl-piperazine-1-sulfonyl)-phenyl]-propionamide] | ~251

Test system: not given
Experiment: not given

Row | Structure (SMILES) | melting point [°C]
2 | CCN(CC)S(=O)(=O)c1ccc(C(CC2CCCC2)C(=O)Nc2nc3ccc(OC)nc3s2)cc1 (stereo not shown) [Example 13, 3-Cyclopentyl-2-(4-diethylsulfamoyl-phenyl)-N-(5-methoxy-thiazolo[5,4-b]pyridin-2-yl)-propionamide] | 150 to 152
3 | COc1ccc2nc(NC(=O)C(CC3CCCC3)c3ccc(S(=O)(=O)N4CCCCC4)cc3)sc2n1 (stereo not shown) [Example 17, 3-Cyclopentyl-N-(5-methoxy-thiazolo[5,4-b]pyridin-2-yl)-2-[4-(piperidine-1-sulfonyl)-phenyl]-propionamide] | 184 to 218
4 | COc1ccc2nc(NC(=O)C(CC3CCCC3)c3ccc(S(=O)(=O)NCc4cccnc4)cc3)sc2n1 (stereo not shown) [Example 15, 3-Cyclopentyl-N-(5-methoxy-thiazolo[5,4-b]pyridin-2-yl)-2-{4-[(pyridin-3-ylmethyl)-sulfamoyl]-phenyl}-propionamide] | 227 to 229
5 | COc1ccc2nc(NC(=O)C(CC3CCCC3)c3ccc(S(=O)(=O)N(C)C)cc3)sc2n1 (stereo not shown) [Example 12, 3-Cyclopentyl-2-(4-dimethylsulfamoyl-phenyl)-N-(5-methoxy-thiazolo[5,4-b]pyridin-2-yl)-propionamide] | 229 to 234
6 | COc1ccc2nc(NC(=O)C(CC3CCCC3)c3ccc(S(=O)(=O)NCc4cccs4)cc3)sc2n1 (stereo not shown) [Example 19, 3-Cyclopentyl-N-(5-methoxy-thiazolo[5,4-b]pyridin-2-yl)-2-{4-[(thiophen-2-ylmethyl)-sulfamoyl]-phenyl}-propionamide] | 263 to 268
7 | COc1ccc2nc(NC(=O)C(CC3CCCC3)c3ccc(S(=O)(=O)NCc4ccco4)cc3)sc2n1 (stereo not shown) [Example 10, 3-Cyclopentyl-2-{4-[(furan-2-ylmethyl)-sulfamoyl]-phenyl}-N-(5-methoxy-thiazolo[5,4-b]pyridin-2-yl)-propionamide] | 244 to 247
8 | COCCNS(=O)(=O)c1ccc(C(CC2CCCC2)C(=O)Nc2nc3ccc(OC)nc3s2)cc1 (stereo not shown) [Example 5, 3-Cyclopentyl-2-[4-(2-methoxy-ethylsulfamoyl)-phenyl]-N-(5-methoxy-thiazolo[5,4-b]pyridin-2-yl)-propionamide] | 209 to 211
9 | CCCN(CCC)S(=O)(=O)c1ccc(C(CC2CCCC2)C(=O)Nc2nc3ccc(OC)nc3s2)cc1 (stereo not shown) [Example 14, 3-Cyclopentyl-2-(4-dipropylsulfamoyl-phenyl)-N-(5-methoxy-thiazolo[5,4-b]pyridin-2-yl)-propionamide] | 64 to 66
10 | CCCN(c1ccccc1)S(=O)(=O)c1ccc(C(CC2CCCC2)C(=O)Nc2nc3ccc(OC)nc3s2)cc1 (stereo not shown) [Example 11, 3-Cyclopentyl-N-(5-methoxy-thiazolo[5,4-b]pyridin-2-yl)-2-[4-(phenyl-propyl-sulfamoyl)-phenyl]-propionamide] | 83 to 85
11 | COc1ccc2nc(NC(=O)C(CC3CCCC3)c3ccc(S(=O)(=O)Nc4cccnc4)cc3)sc2n1 (stereo not shown) [Example 20, 3-Cyclopentyl-N-(5-methoxy-thiazolo[5,4-b]pyridin-2-yl)-2-[4-(pyridin-3-ylsulfamoyl)-phenyl]-propionamide] | 125 to 127
12 | COc1ccc2nc(NC(=O)C(CC3CCCC3)c3ccc(S(=O)(=O)NC4CC4)cc3)sc2n1 (stereo not shown) [Example 4, 3-Cyclopentyl-2-(4-cyclopropylsulfamoyl-phenyl)-N-(5-methoxy-thiazolo[5,4-b]pyridin-2-yl)-propionamide] | 235 to 237
13 | COc1ccc2nc(NC(=O)C(CC3CCCC3)c3ccc(S(=O)(=O)Nc4ccccc4)cc3)sc2n1 (stereo not shown) [Example 7, 3-Cyclopentyl-N-(5-methoxy-thiazolo[5,4-b]pyridin-2-yl)-2-(4-phenylsulfamoyl-phenyl)-propionamide] | 223 to 226
14 | COc1ccc2nc(NC(=O)C(CC3CCCC3)c3ccc(S(=O)(=O)N4CCN(C(C)=O)CC4)cc3)sc2n1 (stereo not shown) [Example 27, 2-[4-(4-Acetyl-piperazine-1-sulfonyl)-phenyl]-3-cyclopentyl-N-(5-methoxy-thiazolo[5,4-b]pyridin-2-yl)-propionamide] | 215 to 217
15 | COc1ccc2nc(NC(=O)C(CC3CCCC3)c3ccc(S(=O)(=O)NCc4ccccc4F)cc3)sc2n1 (stereo not shown) [Example 21, 3-Cyclopentyl-2-[4-(2-fluoro-benzylsulfamoyl)-phenyl]-N-(5-methoxy-thiazolo[5,4-b]pyridin-2-yl)-propionamide] | 238 to 240
16 | COc1ccc2nc(NC(=O)C(CC3CCCC3)c3ccc(S(=O)(=O)N(C(C)C)C(C)C)cc3)sc2n1 (stereo not shown) [Example 9, 3-Cyclopentyl-2-(4-diisopropylsulfamoyl-phenyl)-N-(5-methoxy-thiazolo[5,4-b]pyridin-2-yl)-propionamide] | 83 to 85
17 | COc1ccc2nc(NC(=O)C(CC3CCCC3)c3ccc(S(=O)(=O)NCc4ccccc4)cc3)sc2n1 (stereo not shown) [Example 23, 2-(4-Benzylsulfamoyl-phenyl)-3-cyclopentyl-N-(5-methoxy-thiazolo[5,4-b]pyridin-2-yl)-propionamide] | 237 to 240
18 | COc1ccc2nc(NC(=O)C(CC3CCCC3)c3ccc(S(=O)(=O)N(C)Cc4ccccc4)cc3)sc2n1 (stereo not shown) [Example 24, 2-[4-(Benzyl-methyl-sulfamoyl)-phenyl]-3-cyclopentyl-N-(5-methoxy-thiazolo[5,4-b]pyridin-2-yl)-propionamide] | 206 to 208
19 | COc1cccc(CNS(=O)(=O)c2ccc(C(CC3CCCC3)C(=O)Nc3nc4ccc(OC)nc4s3)cc2)c1 (stereo not shown) [Example 6, 3-Cyclopentyl-2-[4-(3-methoxy-benzylsulfamoyl)-phenyl]-N-(5-methoxy-thiazolo[5,4-b]pyridin-2-yl)-propionamide] | 179 to 181
20 | CCCCN(CCCC)S(=O)(=O)c1ccc(C(CC2CCCC2)C(=O)Nc2nc3ccc(OC)nc3s2)cc1 (stereo not shown) [Example 25, 3-Cyclopentyl-2-(4-dibutylsulfamoyl-phenyl)-N-(5-methoxy-thiazolo[5,4-b]pyridin-2-yl)-propionamide] | 65 to 67
21 | COc1ccc2nc(NC(=O)C(CC3CCCC3)c3ccc(S(=O)(=O)N4CCOCC4)cc3)sc2n1 (stereo not shown) [Example 18, 3-Cyclopentyl-N-(5-methoxy-thiazolo[5,4-b]pyridin-2-yl)-2-[4-(morpholine-4-sulfonyl)-phenyl]-propionamide] | 120 to 123
22 | CCN1CCN(S(=O)(=O)c2ccc(C(CC3CCCC3)C(=O)Nc3nc4ccc(OC)nc4s3)cc2)CC1 (stereo not shown) [Example 26, 3-Cyclopentyl-2-[4-(4-ethyl-piperazine-1-sulfonyl)-phenyl]-N-(5-methoxy-thiazolo[5,4-b]pyridin-2-yl)-propionamide] | 106 to 110
